Melting point and IC50 data for 27 compounds are collected here from patent US9593108B2, “Compounds and methods for antiviral treatment” (PTC Therapeutics, Inc., priority 2009, dated 2017).

Data set [1] has as its system HCV replicon RNA (GenBank Accession No. AJ242654). Briefly: HCV Replicon Assay (replicon RNA reduction and/or Fluc reporter signal). Format: cell-based, Hepatitis C virus. The settings on record: Hepatitis C virus, 72 h, replicon-containing cells cultured with test compound for up to 3 days. Put shortly: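 IC50 values mostly reflect the drop in replicon RNA, though Fluc reporter signal may also be used. Compound incubated with cells carrying the bicistronic replicon for as long as 3 days; interferon served as positive control.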

`Cc1cnc2c(c1)c(C#N)c(-c1ccc(S(=O)(=O)NC3(C(F)(F)F)CC3)cn1)n2C1CCC1` [Cpd 74, 6-(3-cyano-1-cyclobutyl-5-methyl-1H-pyrrolo[2,3-b]pyridin-2-yl)-N-[1-(trifluoromethyl)cyclopropyl]pyridine-3-sulfonamide]: the melting point (usually the temperature of the solid-liquid transition) lay within 245 to 247 °C. Besides, in data set [1], the IC50 (usually the concentration that inhibits the measured activity by half) is under 500 nM.
For `Cc1cnc2c(c1)c(C#N)c(-c1ccc(S(=O)(=O)NC3(C(F)(F)F)CC3)cc1)n2C1CCC1` [Cpd 75, 4-(3-cyano-1-cyclobutyl-5-methyl-1H-pyrrolo[2,3-b]pyridin-2-yl)-N-[1-(trifluoromethyl)cyclopropyl]benzenesulfonamide], in that order: 187 to 188 °C and under 500 nM.
For `Cc1cnc2c(c1)c(C#N)c(-c1ccc(S(=O)(=O)NC3(C)CC3)cn1)n2C1CCC1` [Cpd 76, 6-(3-cyano-1-cyclobutyl-5-methyl-1H-pyrrolo[2,3-b]pyridin-2-yl)-N-(1-methylcyclopropyl)pyridine-3-sulfonamide], in that order: 188 to 189 °C and 500 to 2000 nM.
In turn, `Cc1cnc2c(c1)c(C#N)c(-c1ccc(S(=O)(=O)NC3(C)CC3)cc1)n2C1CCC1` [Cpd 77, 4-(3-cyano-1-cyclobutyl-5-methyl-1H-pyrrolo[2,3-b]pyridin-2-yl)-N-(1-methylcyclopropyl)benzenesulfonamide] came in with a melting point of 188 to 190 °C. In data set [1], this compound displayed an IC50 of under 500 nM.
Taken in the same sequence, the figures for `Cc1cnc2c(c1)c(C#N)c(-c1ncc(S(=O)(=O)NC(C)C)cn1)n2C1CCC1` [Cpd 78, 2-(3-cyano-1-cyclobutyl-5-methyl-1H-pyrrolo[2,3-b]pyridin-2-yl)-N-(propan-2-yl)pyrimidine-5-sulfonamide] were 187 to 190 °C and under 500 nM.
For `Cc1cnc2c(c1)c(C#N)c(-c1ccc(S(=O)(=O)NC(C)(C)C(F)(F)F)cc1)n2C1CCC1` [Cpd 79, 4-(3-cyano-1-cyclobutyl-5-methyl-1H-pyrrolo[2,3-b]pyridin-2-yl)-N-(1,1,1-trifluoro-2-methylpropan-2-yl)benzenesulfonamide], in that order: 180 to 181 °C and under 500 nM.
Taken in the same sequence, the figures for `C[C@H](NS(=O)(=O)c1ccc(-c2c(C#N)c3cnc(Cl)cc3n2C2CCCC2)nc1)C(F)(F)F` [Cpd 80, 6-(6-chloro-3-cyano-1-cyclopentyl-1H-pyrrolo[3,2-c]pyridin-2-yl)-N-[(2S)-1,1,1-trifluoropropan-2-yl]pyridine-3-sulfonamide] were 235 to 237 °C and under 500 nM.
Turning to `C[C@@H](NS(=O)(=O)c1ccc(-c2c(C#N)c3cnc(Cl)cc3n2C2CCCC2)nc1)C(F)(F)F` [Cpd 81, 6-(6-chloro-3-cyano-1-cyclopentyl-1H-pyrrolo[3,2-c]pyridin-2-yl)-N-[(2R)-1,1,1-trifluoropropan-2-yl]pyridine-3-sulfonamide], the melting point lay within 239 to 240 °C. The IC50 in data set [1] is under 500 nM.
Taken in the same sequence, the figures for `N#Cc1c(-c2ccc(S(=O)(=O)NC(CF)CF)cn2)n(C2CCCC2)c2cc(Cl)ncc12` [Cpd 82, 6-(6-chloro-3-cyano-1-cyclopentyl-1H-pyrrolo[3,2-c]pyridin-2-yl)-N-(1,3-difluoropropan-2-yl)pyridine-3-sulfonamide] were 231 to 233 °C and under 500 nM.
For `N#Cc1c(-c2ccc(S(=O)(=O)NC3(C(F)(F)F)CC3)cn2)n(C2CCCC2)c2cc(Cl)ncc12` [Cpd 83, 6-(6-chloro-3-cyano-1-cyclopentyl-1H-pyrrolo[3,2-c]pyridin-2-yl)-N-[1-(trifluoromethyl)cyclopropyl]pyridine-3-sulfonamide], in that order: 225 to 227 °C and under 500 nM.
For `CC1(NS(=O)(=O)c2ccc(-c3c(C#N)c4cnc(Cl)cc4n3C3CCCC3)nc2)CC1` [Cpd 84, 6-(6-chloro-3-cyano-1-cyclopentyl-1H-pyrrolo[3,2-c]pyridin-2-yl)-N-(1-methylcyclopropyl)pyridine-3-sulfonamide], in that order: 209 to 211 °C and under 500 nM.
`CC(C)NS(=O)(=O)c1cnc(-c2c(C#N)c3cnc(Cl)cc3n2C2CCCC2)nc1` [Cpd 85, 2-(6-chloro-3-cyano-1-cyclopentyl-1H-pyrrolo[3,2-c]pyridin-2-yl)-N-(propan-2-yl)pyrimidine-5-sulfonamide] showed a melting point of 249 to 250 °C. In data set [1], this compound gave an IC50 of under 500 nM.
For `N#Cc1c(-c2ncc(S(=O)(=O)NC(CF)CF)cn2)n(C2CCCC2)c2cc(Cl)ncc12` [Cpd 86, 2-(6-chloro-3-cyano-1-cyclopentyl-1H-pyrrolo[3,2-c]pyridin-2-yl)-N-(1,3-difluoropropan-2-yl)pyrimidine-5-sulfonamide], in that order: 224 to 226 °C and under 500 nM.
As to `C[C@H](NS(=O)(=O)c1ccc(-c2c(C#N)c3cnc(Cl)cc3n2C2CCCC2)cc1)C(F)(F)F` [Cpd 87, 4-(6-chloro-3-cyano-1-cyclopentyl-1H-pyrrolo[3,2-c]pyridin-2-yl)-N-[(2S)-1,1,1-trifluoropropan-2-yl]benzenesulfonamide], the melting point was in the range of 238 to 240 °C. This compound also registered an IC50 in data set [1] of under 500 nM.
Taken in the same sequence, the figures for `C[C@@H](NS(=O)(=O)c1ccc(-c2c(C#N)c3cnc(Cl)cc3n2C2CCCC2)cc1)C(F)(F)F` [Cpd 88, 4-(6-chloro-3-cyano-1-cyclopentyl-1H-pyrrolo[3,2-c]pyridin-2-yl)-N-[(2R)-1,1,1-trifluoropropan-2-yl]benzenesulfonamide] were 239 to 241 °C and under 500 nM.
Taken in the same sequence, the figures for `N#Cc1c(-c2ccc(S(=O)(=O)NC3(C(F)(F)F)CC3)cc2)n(C2CCCC2)c2cc(Cl)ncc12` [Cpd 89, 4-(6-chloro-3-cyano-1-cyclopentyl-1H-pyrrolo[3,2-c]pyridin-2-yl)-N-[1-(trifluoromethyl)cyclopropyl]benzenesulfonamide] were 288 to 289 °C and 2000 to 5000 nM.
In turn, `Cc1ccc2c(C#N)c(-c3ccc(S(=O)(=O)N[C@@H](C)C(F)(F)F)cc3)n(C3CCC3)c2n1` [Cpd 90, 4-(3-cyano-1-cyclobutyl-6-methyl-1H-pyrrolo[2,3-b]pyridin-2-yl)-N-[(2S)-1,1,1-trifluoropropan-2-yl]benzenesulfonamide] yielded a melting point of 169 to 177 °C. Further, the half-inhibitory concentration (IC50) in data set [1] was under 500 nM.
For `Cc1ccc2c(C#N)c(-c3ccc(S(=O)(=O)NC4(C(F)(F)F)CC4)cn3)n(C3CCC3)c2n1` [Cpd 94, 6-(3-cyano-1-cyclobutyl-6-methyl-1H-pyrrolo[2,3-b]pyridin-2-yl)-N-[1-(trifluoromethyl)cyclopropyl]pyridine-3-sulfonamide], in that order: 230 to 236 °C and under 500 nM.
In turn, `Cc1ccc2c(C#N)c(-c3ccc(S(=O)(=O)NC(C)C)nc3)n(C3CCC3)c2n1` [Cpd 96, 5-(3-cyano-1-cyclobutyl-6-methyl-1H-pyrrolo[2,3-b]pyridin-2-yl)-N-(propan-2-yl)pyridine-2-sulfonamide] showed a melting point of 211 to 216 °C. The same compound had an IC50 in data set [1] of under 500 nM.
For the compound `N#Cc1c(-c2ccc(S(=O)(=O)NC(CF)CF)cn2)n(C2CCC2)c2cc(Cl)ncc12` [Cpd 97, 6-(6-chloro-3-cyano-1-cyclobutyl-1H-pyrrolo[3,2-c]pyridin-2-yl)-N-(1,3-difluoropropan-2-yl)pyridine-3-sulfonamide], the melting point is 215 to 216 °C. Further, the IC50 in data set [1] is under 500 nM.
Taken in the same sequence, the figures for `N#Cc1c(-c2ccc(S(=O)(=O)NC3(C(F)(F)F)CC3)cn2)n(C2CCC2)c2cc(Cl)ncc12` [Cpd 98, 6-(6-chloro-3-cyano-1-cyclobutyl-1H-pyrrolo[3,2-c]pyridin-2-yl)-N-[1-(trifluoromethyl)cyclopropyl]pyridine-3-sulfonamide] were 227 to 228 °C and under 500 nM.
Taken in the same sequence, the figures for `CC1(NS(=O)(=O)c2ccc(-c3c(C#N)c4cnc(Cl)cc4n3C3CCC3)nc2)CC1` [Cpd 99, 6-(6-chloro-3-cyano-1-cyclobutyl-1H-pyrrolo[3,2-c]pyridin-2-yl)-N-(1-methylcyclopropyl)pyridine-3-sulfonamide] were 167 to 168 °C and under 500 nM.
`CC(C)NS(=O)(=O)c1cnc(-c2c(C#N)c3cnc(Cl)cc3n2C2CCC2)nc1` [Cpd 100, 2-(6-chloro-3-cyano-1-cyclobutyl-1H-pyrrolo[3,2-c]pyridin-2-yl)-N-(propan-2-yl)pyrimidine-5-sulfonamide]: the melting point was in the range of 238 to 239 °C. The compound further returned an IC50 in data set [1] of under 500 nM.
For `N#Cc1c(-c2ncc(S(=O)(=O)NC(CF)CF)cn2)n(C2CCC2)c2cc(Cl)ncc12` [Cpd 101, 2-(6-chloro-3-cyano-1-cyclobutyl-1H-pyrrolo[3,2-c]pyridin-2-yl)-N-(1,3-difluoropropan-2-yl)pyrimidine-5-sulfonamide], in that order: 237 to 238 °C and under 500 nM.
Taken in the same sequence, the figures for `C[C@H](NS(=O)(=O)c1ccc(-c2c(C#N)c3cnc(Cl)cc3n2C2CCC2)cc1)C(F)(F)F` [Cpd 102, 4-(6-chloro-3-cyano-1-cyclobutyl-1H-pyrrolo[3,2-c]pyridin-2-yl)-N-[(2S)-1,1,1-trifluoropropan-2-yl]benzenesulfonamide] were 202 to 203 °C and under 500 nM.
Taken in the same sequence, the figures for `C[C@H](NS(=O)(=O)c1ccc(-c2c(C#N)c3ccncc3n2C2CCC2)nc1)C(F)(F)F` [Cpd 103, 6-(3-cyano-1-cyclobutyl-1H-pyrrolo[2,3-c]pyridin-2-yl)-N-[(2S)-1,1,1-trifluoropropan-2-yl]pyridine-3-sulfonamide] were 199 to 201 °C and under 500 nM.
`C[C@@H](NS(=O)(=O)c1ccc(-c2c(C#N)c3cc(Cl)ncc3n2C2CCC2)nc1)C(F)(F)F` [Cpd 104, 6-(5-chloro-3-cyano-1-cyclobutyl-1H-pyrrolo[2,3-c]pyridin-2-yl)-N-[(2R)-1,1,1-trifluoropropan-2-yl]pyridine-3-sulfonamide] gave a melting point of 181 to 185 °C. This compound had an IC50 in data set [1] of under 500 nM.
